Data from ChEMBL document CHEMBL1121764, “Synthesis of some novel amodiaquine analogues as potential antimalarial and antifilarial compounds” (J Med Chem, 1981).

What was measured:
[1] = test system: breinlia booliati; experiment: Time taken for In vitro anti-filarial activity to immobilize breinlia booliati (Microfilaria); assay type: functional
[2] = test system: breinlia booliati; experiment: Time taken for In vitro anti-filarial activity to immobilize breinlia booliati (adult worms); assay type: functional
[3] = species: Mus musculus; experiment: Lethal dose that killed mice in 48 hr; assay type: toxicity, organism-based; settings: in vivo
[4] = species: Mus musculus; experiment: Minimum effective dose which on 5th day reduced the mean infection level to one-fiftieth of the control; assay type: functional
[5] = Ratio of activity of quinine versus compound against Plasmodium berghei in mice; assay type: functional
[6] = species: Mus musculus; experiment: Minimum effective dose which on 5th day reduced the mean infection level to one-fiftieth of the control; No activity observed at a dose range of 0.05-2.0 mg (HCl) per 20 g

Row | SMILES | TIME [1] | TIME [2] | LD app [3] | MED [4] | Ratio [5] | MED [6]
1 | CCN(CC)C(=O)N1CCN(C)CC1 [DIETHYLCARBAMAZINE] | 4 h | 2 h | 1.34 mM/kg |  |  | 
2 | CCN(Cc1cc(Nc2ccnc3cc(Cl)ccc23)ccc1OC)C(=O)N1CCN(C)CC1 | 3 h | 3 h | 0.63 mM/kg | 0.43 (mg of base) 20g-1 | 2.8 | 
3 | COc1ccc(Nc2ccnc3cc(Cl)ccc23)cc1CNC(=O)N1CCN(C)CC1 | 7 h | 5 h | 0.68 mM/kg | 0.43 (mg of base) 20g-1 | 2.8 | 
4 | CN1CCN(C(=O)NCc2cc(Nc3ccnc4cc(Cl)ccc34)ccc2O)CC1 | 7 h | 5 h | 0.66 mM/kg | 0.043 (mg of base) 20g-1 | 28.4 | 
5 | CCN(CC)C(=O)N1CCN(Cc2cc(Nc3ccnc4cc(Cl)ccc34)ccc2OC)CC1 | 6 h | 3 h | 0.41 mM/kg | 0.43 (mg of base) 20g-1 | 2.8 | 
6 | CCN(CC)C(=O)N(CC)Cc1cc(Nc2ccnc3cc(Cl)ccc23)ccc1OC | 8 h | 8 h |  |  |  | No activity
7 | CCN(CC)C(=O)NCc1cc(Nc2ccnc3cc(Cl)ccc23)ccc1OC | 8 h | 8 h |  |  |  | No activity
8 | CCN(Cc1cc(Nc2ccnc3cc(Cl)ccc23)ccc1O)C(=O)N1CCN(C)CC1 | 3 h | 3 h | 0.76 mM/kg | 0.21 (mg of base) 20g-1 | 5.8 | 
9 | CCN(CC)C(=O)NCc1cc(Nc2ccnc3cc(Cl)ccc23)ccc1O | 8 h | 8 h |  |  |  | No activity
10 | CCN(CC)C(=O)N(CC)Cc1cc(Nc2ccnc3cc(Cl)ccc23)ccc1O | 8 h | 8 h |  |  |  | No activity
11 | CCN(CC)Cc1cc(Nc2ccnc3cc(Cl)ccc23)ccc1O.Cl | 3 h | 3 h | 0.32 mM/kg | 0.077 (mg of base) 20g-1 | 15.8 | 
12 | CCN(CC)C(=O)N1CCN(Cc2cc(Nc3ccnc4cc(Cl)ccc34)ccc2O)CC1 | 6 h | 3 h | 0.37 mM/kg | 0.43 (mg of base) 20g-1 | 2.8 | 
